Like-named read-outs stand apart in the source and are kept apart here.
How the values were obtained:
Type in all cases: cell-based
[1] = tested on: Giardia intestinalis trophozoites; assay: In vitro assay on trophozoite form of Giardia intestinalis (resazurin, 48 h); conditions: for IC50: Giardia duodenalis, trophozoites, 48 h, read-out: G. intestinalis IC50
Procedure: Trophozoites of Giardia (strain ATCC® 203333) were grown in modified TYI-S-33 medium at pH 7.0, supplemented with 10% heat-inactivated fetal calf serum and 0.5 g bovine bile (Sigma-Aldrich, St Louis, MO, USA), in 20 mL screw-cap culture vials. The assay was carried out according to a previously described method. Detachment of trophozoites for preparation of inoculant was achieved by chilling the cultures on ice for 20 min. Trophozoites (5 × 10^4 parasites/well) were cultured in 96-well plastic plates (Sarstedt, Nümbrecht, Germany). Compounds were dissolved in DMSO. […] To evaluate cell viability, the fluorescence intensity (535 nm-excitation wavelength- and 590 nm-emission wavelength) was determined with a fluorimeter Infinite 200 (Tecan i-Control, Tecan Ibérica Instrumentation S.L., Barcelona, Spain) to calculate the growth inhibition rate (%). All tests were carried out in triplicate. Metronidazole was used as a reference drug. […] All values were expressed as means ± standard error of the mean (S.E.M.). Statistically significant differences between treated and control samples were tested by one-way analysis of variance (ANOVA).

[2] = Cytotoxicity assay on murine macrophages (resazurin, 48 h); conditions: mouse, J774 cell line, 48 h
Procedure: (§1) A., Madrid, Spain) at 37 °C and 5% CO2 air atmosphere. The assay was carried out according to a previously described method. […] Growth controls and signal-to-noise were also included. Afterward, a volume of 20 μL of 2.5 mM resazurin solution in PBS was added, and plates were placed again in the incubator for another 3 h to evaluate cell viability. The reduction of resazurin was determined by fluorometry as in the promastigote assay. Each concentration was assayed in triplicate. […] All values were expressed as means ± standard error of the mean (S.E.M.). Statistically significant differences between treated and control samples were tested by one-way analysis of variance (ANOVA).

[3] = tested on: murine macrophage J774 cell line; assay: as above; conditions: for SI: selectivity index (CC50/IC50): J774 macrophages vs G. intestinalis, pure flavonoids (Table 4)
Procedure: as §1

[4] = J774 macrophage cell line, pure flavonoids

Molecule | IC50 ([1]; pure flavonoids) | IC50 ([1]; extract, fractions and sub-fractions of Piper delineatum leaves) | CC50 at 48 h [2, 4] | SI: selectivity index (CC50/IC50) [3] | Antiparasitic potency relative to metronidazole ([1]; IC50 ratio to the reference drug metronidazole) | CC50 at 48 h ([2]; pure flavonoids) | CC50 at 48 h ([2]; J774 macrophage cell line, extract, fractions and sub-fractions) | Macrophages CC50 [3]
COc1cc(O)cc(O)c1C(=O)/C=C/c1cccc(O)c1 [Compound 1, 2′,4′,3-Trihydroxy-6′-methoxychalcone] | 7 ± 0.1 µM |  | 12.9 ± 0.2 µM | 1.8 |  |  |  | 
COc1cc(O)c(OC)c(O)c1C(=O)/C=C/c1cccc(O)c1 [Compound 2, 2′,4′,3-Trihydroxy-3′,6′-dimethoxychalcone] | 47.7 ± 1.2 µM |  | 184 ± 2.6 µM | 3.9 |  |  |  | 
COc1cc(O)cc(/C=C/C(=O)c2c(O)cc(O)cc2OC)c1 [Compound 3, 2′,4′,3-Trihydroxy-6′,5-dimethoxychalcone] | 6 ± 0.3 µM |  | 12 ± 0.1 µM |  |  |  |  | 
COc1cc(O)cc(/C=C/C(=O)c2c(O)cc(OC)cc2OC)c1 [Compound 4, 2′,3-Dihydroxy-4′,6′,5-trimethoxychalcone] | 0.061 ± 0.001 µM |  | 14.2 ± 0.2 µM | 233 | 41 fold |  |  | 
COc1cccc(/C=C/C(=O)c2c(O)cc(O)cc2OC)c1 [Compound 7, 2′,4′-dihydroxy-3,6′-dimethoxychalchone] | 4.7 ± 0.1 µM |  | 15.7 ± 0.2 µM |  |  |  |  | 
COc1cc(O)cc(O)c1C(=O)/C=C/c1ccccc1 [Compound 8, 2′,4′-dihydroxy-6′-methoxychalchone] | 9.6 ± 0.2 µM |  |  |  |  | 37.8 ± 1.1 µM |  | 
COc1cc(O)c2c(c1)O[C@H](c1ccc(O)cc1)CC2=O [Compound 23, sakuranetin] | 52.4 ± 2.1 µM |  |  | 3.5 |  | 184 ± 2.3 µM |  | 
EtOH |  |  |  |  |  |  |  | 7.1 ± 0.6 mg/L

The next lines start with results.

IC50 ([1]; pure flavonoids) | IC50 ([1]; extract, fractions and sub-fractions of Piper delineatum leaves) | Molecule | CC50 at 48 h [2, 4] | SI: selectivity index (CC50/IC50) [3] | Antiparasitic potency relative to metronidazole ([1]; IC50 ratio to the reference drug metronidazole) | CC50 at 48 h ([2]; pure flavonoids) | CC50 at 48 h ([2]; J774 macrophage cell line, extract, fractions and sub-fractions) | Macrophages CC50 [3]
10.8 ± 0.1 µM |  | COc1cccc(/C=C/C(=O)c2c(O)cc(OC)cc2OC)c1 [Compound 9, 2′-hydroxy-3,4′,6′-trimethoxychalchone] | 22.6 ± 0.5 µM |  |  |  |  | 
32.7 ± 1.3 µM |  | COc1cccc(/C=C/C(=O)c2c(OC)cc(O)c(OC)c2O)c1 [Compound 10, 2′,4′-dihydroxy-3,3′,6′-trimethoxychalcone] | 44.2 ± 0.7 µM | 1.4 |  |  |  | 
22.5 ± 0.8 µM |  | COc1cc(O)cc(/C=C/C(=O)c2c(OC)cc(OC)c(O)c2O)c1 [Compound 11, 2′,3′,5-trihydroxy-4′,6′,3-trimethoxychalcone] | 48.5 ± 0.8 µM | 2.2 |  |  |  | 
7.3 ± 0.6 µM |  | COc1cc(OC)c(C(=O)/C=C/c2ccccc2)c(O)c1O [Compound 12, 2′,3′-dihydroxy-4′,6′-dimethoxychalchone] | 25.3 ± 0.4 µM | 3.5 |  |  |  | 
10.4 ± 0.2 µM |  | COc1cc(/C=C/C(=O)c2c(O)cc(O)cc2OC)ccc1O [Compound 14, 2′,4′,4-trihydroxy-3,6′-dimethoxychalchone] | 16.5 ± 0.03 µM | 1.6 |  |  |  | 
70.5 ± 0.3 µM |  | COc1cc(O)cc(O)c1C(=O)CCc1ccccc1 [Compound 16, uvangoletin] | > 367 µM | >5.2 |  |  |  | 
49.3 ± 0.9 µM |  | COc1cccc(C2CC(=O)c3c(OC)cc(OC)cc3O2)c1 (stereo not drawn) [Compound 24, 5,7,3′-trimethoxyflavanone] | 144 ± 2.3 µM | 2.9 |  |  |  | 
2.5 ± 0.1 µM | 0.4 ± 0.1 mg/L | Cc1ncc([N+](=O)[O-])n1CCO [Metronidazole, reference compound] | > 584 µM | >233 |  |  | 233 mg/L | 

Source: paper PMC9695682, “Flavonoids from Piper Species as Promising Antiprotozoal Agents against Giardia intestinalis: Structure-Activity Relationship and Drug-Likeness Studies” (Pharmaceuticals, 2022)
